# Reference: patent US8785436B2, “1,3-oxazines as BACE 1 and/or BACE2 inhibitors” (Hoffmann-La Roche Inc., priority 2011, dated 2014)
# Counter-ions that a name gives are not always drawn.
# Biological target: T1, BACE1 (Homo sapiens, UniProt P56817)
# T1 construct: Human HEK293 cells which are stably transfected with a vector expressing a cDNA of the human APP wt gene (APP695); endogenous in cells; host or cells: HEK293 cells stably expressing human APP695 wt
# Assay: Cellular Aβ-lowering assay a) (Aβ40 ELISA, HEK293 APP cells)
# Type: cell-based
# Settings: cellular assay a): HEK293 APP695 cells, 18-20 hrs incubation, read-out: BACE1 cell act. Aβ40 IC50
# Procedure: Cellular Aβ-Lowering Assay:
# a) Human HEK293 cells which are stably transfected with a vector expressing a cDNA of the human APP wt gene (APP695) were used to assess the potency of the compounds in a cellular assay. The cells were seeded in 96-well microtiter plates in cell culture medium (Iscove, plus 10% (v/v) fetal bovine serum, glutamine, penicillin/streptomycin) to about 80% confluence and the compounds were added at a 10× concentration in 1/10 volume of medium without FCS containing 8% DMSO (final concentration of DMSO was kept at 0.8% v/v). After 18-20 hrs incubation at 37° C. and 5% CO2 in a humidified incubator the culture supernatant was harvested for the determination of Aβ40 concentrations. 96 well ELISA plates (e.g., Nunc MaxiSorb) were coated with monoclonal antibody which specifically recognize the C-terminal end of Aβ40 (Brockhaus et al., NeuroReport 9, 1481-1486; 1998). After blocking of non-specific binding sites with e.g. 1% BSA and washing, the culture supernatants were added in suitable dilutions together with a horseradish peroxidase-coupled Aβ detection antibody (e.g., antibody 4G8, Senetek, Maryland Heights, Mo.) and incubated for 5 to 7 hrs. Subsequently the wells of the microtiter plate were washed extensively with Tris-buffered saline containing 0.05% Tween 20 and the assay was developed with tetramethylbenzidine/H2O2 in citric acid buffer. After stopping the reaction with one volume 1 NH2SO4 the reaction was measured in an ELISA reader at 450 nm wavelength. The concentrations of Aβ in the culture supernatants were calculated from a standard curve obtained with known amounts of pure Aβ peptide.
# T1 sequence (P56817 46-501): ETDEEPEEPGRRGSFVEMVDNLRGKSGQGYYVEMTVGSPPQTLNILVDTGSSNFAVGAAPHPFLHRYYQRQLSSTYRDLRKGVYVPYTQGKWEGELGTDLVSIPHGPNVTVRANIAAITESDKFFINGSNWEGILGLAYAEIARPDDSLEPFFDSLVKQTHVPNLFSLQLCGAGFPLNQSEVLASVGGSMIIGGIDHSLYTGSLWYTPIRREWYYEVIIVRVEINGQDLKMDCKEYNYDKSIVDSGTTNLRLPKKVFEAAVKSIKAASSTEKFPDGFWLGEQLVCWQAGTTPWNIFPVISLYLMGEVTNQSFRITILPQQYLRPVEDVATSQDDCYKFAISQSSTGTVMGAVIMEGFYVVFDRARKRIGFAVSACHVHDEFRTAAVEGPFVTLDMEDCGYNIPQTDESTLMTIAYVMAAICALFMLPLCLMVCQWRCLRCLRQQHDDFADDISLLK
row,Structure (SMILES),IC50 [µM]
1,"CC1(C)OC(N)=N[C@](C)(c2cc(Nc3ccccc3C(F)(F)F)ccc2F)C1(F)F [Example 46, (R)-5,5-Difluoro-4-[2-fluoro-5-(2-trifluoromethyl-phenylamino)-phenyl]-4,6,6-trimethyl-5,6-dihydro-4H-[1,3]oxazin-2-ylamine]",6.92
2,"C[C@]1(c2cc3c(cc2F)OCC(c2ccc(Cl)cn2)N3)N=C(N)OCC1(F)F (mixture of isomers) [Example 38, (R)-4-[(RS)-3-(5-Chloro-pyridin-2-yl)-7-fluoro-3,4-dihydro-2H-benzo[1,4]oxazin-6-yl]-5,5-difluoro-4-methyl-5,6-dihydro-4H-[1,3]oxazin-2-ylamine]",5.46
3,"Cc1cc(C(C)Nc2ccc(F)c([C@@]3(C)N=C(N)OCC3(F)F)c2)[nH]n1 (mixture of isomers) [Example 17, (R)-5,5-Difluoro-4-{2-fluoro-5-[(RS)-1-(5-methyl-2H-pyrazol-3-yl)-ethylamino]-phenyl}-4-methyl-5,6-dihydro-4H-[1,3]oxazin-2-ylamine]",0.43
4,"C[C@]1(c2cc(-c3cnn(-c4ccc(F)cc4)c3)ccc2F)N=C(N)OCC1(F)F [Example 31, (R)-5,5-Difluoro-4-{2-fluoro-5-[1-(4-fluoro-phenyl)-1H-pyrazol-4-yl]-phenyl}-4-methyl-5,6-dihydro-4H-[1,3]oxazin-2-ylamine]",8.44
5,"CC1(CNc2ccc(F)c([C@@]3(C)N=C(N)OCC3(F)F)c2)COC1 [Example 24, (R)-5,5-Difluoro-4-{2-fluoro-5-[(3-methyl-oxetan-3-ylmethyl)-amino]-phenyl}-4-methyl-5,6-dihydro-4H-[1,3]oxazin-2-ylamine]",0.3
6,"C[C@]1(c2cc(NC3CCOC3)ccc2F)N=C(N)OCC1(F)F (mixture of isomers) [Example 26, (R)-5,5-Difluoro-4-{2-fluoro-5-[(RS)-(tetrahydro-furan-3-yl)amino]-phenyl}-4-methyl-5,6-dihydro-4H-[1,3]oxazin-2-ylamine]",0.4
7,"CC(Nc1ccc(F)c([C@@]2(C)N=C(N)OCC2(F)F)c1)c1cc(C2CC2)on1 (mixture of isomers) [Example 20, (R)-4-{5-[(RS)-1-(5-Cyclopropyl-isoxazol-3-yl)-ethylamino]-2-fluoro-phenyl}-5,5-difluoro-4-methyl-5,6-dihydro-4H-[1,3]oxazin-2-ylamine]",2
8,"C[C@]1(c2cc(NCc3ccsc3)ccc2F)N=C(N)OC[C@@H]1F [Example 6, (4R,5R)-5-Fluoro-4-{2-fluoro-5-[(thiophen-3-ylmethyl)-amino]-phenyl}-4-methyl-5,6-dihydro-4H-[1,3]oxazin-2-ylamine]",0.66
9,"C[C@]1(c2cccc(OCc3ccc(C(F)(F)F)cc3)c2)N=C(N)OCC1(F)F [Example 36, (R)-5,5-Difluoro-4-methyl-4-[3-(4-trifluoromethyl-benzyloxy)-phenyl]-5,6-dihydro-4H-[1,3]oxazin-2-ylamine]",7.74
10,"C[C@]1(c2cc(NC3CCCc4cc(C#N)cnc43)ccc2F)N=C(N)OCC1(F)F (mixture of isomers) [Example 27, (RS)-8-[3-((R)-2-Amino-5,5-difluoro-4-methyl-5,6-dihydro-4H-[1,3]oxazin-4-yl)-4-fluoro-phenylamino]-5,6,7,8-tetrahydro-quinoline-3-carbonitrile]",0.46
11,"Cc1ccccc1Nc1ccc(F)c([C@@]2(C)N=C(N)OC(C)(C)C2(F)F)c1 [Example 45, (R)-5,5-Difluoro-4-(2-fluoro-5-o-tolylamino-phenyl)-4,6,6-trimethyl-5,6-dihydro-4H-[1,3]oxazin-2-ylamine]",2.92
12,"CC(Nc1ccc(F)c([C@@]2(C)N=C(N)OCC2(F)F)c1)c1nn(C)cc1Cl (mixture of isomers) [Example 18, (R)-4-{5-[(RS)-1-(4-Chloro-1-methyl-1H-pyrazol-3-yl)-ethylamino]-2-fluoro-phenyl}-5,5-difluoro-4-methyl-5,6-dihydro-4H-[1,3]oxazin-2-ylamine]",1.23
13,"Cc1cnn(-c2ccc(F)c([C@@]3(C)N=C(N)OC[C@@H]3F)c2)c1 [Example 11, (4R,5R)-5-Fluoro-4-[2-fluoro-5-(4-methyl-pyrazol-1-yl)-phenyl]-4-methyl-5,6-dihydro-4H-[1,3]oxazin-2-ylamine]",1.3
14,"C[C@]1(c2cc(NC3COC3)ccc2F)N=C(N)OCC1(F)F [Example 29, (R)-5,5-Difluoro-4-[2-fluoro-5-(oxetan-3-ylamino)-phenyl]-4-methyl-5,6-dihydro-4H-[1,3]oxazin-2-ylamine]",1.96
15,"C[C@]1(c2cccc(OCc3ccc(C#N)cc3)c2)N=C(N)OCC1(F)F [Example 34, 4-[3-((R)-2-Amino-5,5-difluoro-4-methyl-5,6-dihydro-4H-[1,3]oxazin-4-yl)-phenoxymethyl]-benzonitrile]",1.4
16,"C[C@]1(c2cc(-c3cncc(C#N)c3)ccc2F)N=C(N)OC[C@@H]1F [Example 9, 5-[3-((4R,5R)-2-Amino-5-fluoro-4-methyl-5,6-dihydro-4H-[1,3]oxazin-4-yl)-4-fluoro-phenyl]-nicotinonitrile]",0.19
17,"C[C@@]1(c2cc(NC3CCCC3)ccc2F)CCOC(N)=N1 [Example 2, (S)-4-(5-Cyclopentylamino-2-fluoro-phenyl)-4-methyl-5,6-dihydro-4H-[1,3]oxazin-2-ylamine]",0.34
18,"C[C@]1(c2cc(-c3cnn(-c4ccc(F)cc4)c3)ccc2F)N=C(N)OC[C@@H]1F [Example 10, (4R,5R)-5-Fluoro-4-{2-fluoro-5-[1-(4-fluoro-phenyl)-1H-pyrazol-4-yl]-phenyl}-4-methyl-5,6-dihydro-4H-[1,3]oxazin-2-ylamine Hydrochloride]",0.36
19,"CC(Nc1ccc(F)c([C@@]2(C)N=C(N)OCC2(F)F)c1)c1nn(CC(F)F)cc1Cl (mixture of isomers) [Example 19, (R)-4-(5-{(RS)-1-[4-Chloro-1-(2,2-difluoro-ethyl)-1H-pyrazol-3-yl]-ethylamino}-2-fluoro-phenyl)-5,5-difluoro-4-methyl-5,6-dihydro-4H-[1,3]oxazin-2-ylamine]",1.8
20,"C[C@]1(c2cccc(OCc3ccc(Cl)cc3)c2)N=C(N)OCC1(F)F [Example 35, (R)-4-[3-(4-Chloro-benzyloxy)-phenyl]-5,5-difluoro-4-methyl-5,6-dihydro-4H-[1,3]oxazin-2-ylamine]",4
21,"C[C@]1(c2cc(NCC3CCOC3)ccc2F)N=C(N)OCC1(F)F (mixture of isomers) [Example 30, (R)-5,5-Difluoro-4-{2-fluoro-5-{[(RS)-1-(tetrahydro-furan-3-yl)methyl]-amino}-phenyl}-4-methyl-5,6-dihydro-4H-[1,3]oxazin-2-ylamine]",2.16
22,"C[C@]1(c2cc(NC3CS(=O)(=O)c4ccccc43)ccc2F)N=C(N)OCC1(F)F (mixture of isomers) [Example 28, (R)-4-[5-((RS)-1,1-Dioxo-2,3-dihydro-1H-1λ6-benzo[b]thiophen-3-ylamino)-2-fluoro-phenyl]-5,5-difluoro-4-methyl-5,6-dihydro-4H-[1,3]oxazin-2-ylamine]",1.63
23,"Cc1ccc(Cc2nc3ccc([C@@]4(C)N=C(N)OCC4(F)F)cc3[nH]2)cc1 [Example 37, (R)-5,5-Difluoro-4-methyl-4-[2-(4-methyl-benzyl)-3H-benzoimidazol-5-yl]-5,6-dihydro-4H-[1,3]oxazin-2-ylamine]",0.3
24,"CC1(C)OC(N)=N[C@](C)(c2cc(-c3cncc(Cl)c3)ccc2F)C1(F)F [Example 50, (R)-4-[5-(5-Chloro-pyridin-3-yl)-2-fluoro-phenyl]-5,5-difluoro-4,6,6-trimethyl-5,6-dihydro-4H-[1,3]oxazin-2-ylamine Hydrochloride]",9.08
25,"COc1ccc(Cc2cc3cc(F)c([C@@]4(C)N=C(N)OCC4(F)F)cc3[nH]2)cc1 [Example 39, (R)-5,5-Difluoro-4-[5-fluoro-2-(4-methoxy-benzyl)-1H-indol-6-yl]-4-methyl-5,6-dihydro-4H-[1,3]oxazin-2-ylamine]",5.67
26,"C#CCNC(=O)c1ccc(F)c([C@@]2(C)N=C(N)OCC2(F)F)c1 [Example 41, 3-((R)-2-Amino-5,5-difluoro-4-methyl-5,6-dihydro-4H-[1,3]oxazin-4-yl)-4-fluoro-N-prop-2-ynyl-benzamide]",6.62
27,"CC1(C)OC(N)=N[C@](C)(c2cc(Nc3ccccc3Cl)ccc2F)C1(F)F [Example 42, (R)-4-[5-(2-Chloro-phenylamino)-2-fluoro-phenyl]-5,5-difluoro-4,6,6-trimethyl-5,6-dihydro-4H-[1,3]oxazin-2-ylamine]",1.47
